Test results published in the NIST ThermoML archive (doi:10.1016/j.jct.2006.08.008).
± gives the expanded uncertainty stated by the source.

Key:
[1] = mn = molality of the nth substance listed, in mol/kg; conditions: 350 kPa, Liquid
[2] = molar heat capacity at constant pressure; mn = molality of the nth substance listed, in mol/kg; conditions: 350 kPa, Liquid

N[C@@H](CCC(=O)O)C(=O)O [L-glutamic acid] + O
Conditions	mass density, m1 = 0.00249 [kg/m3]	mass density, m1 = 0.005 [kg/m3]	mass density, m1 = 0.00999 [kg/m3]	mass density, m1 = 0.01497 [kg/m3]	mass density, m1 = 0.02005 [kg/m3]	molar heat capacity at constant pressure, m1 = 0.00249 [J/K/mol]	molar heat capacity at constant pressure, m1 = 0.005 [J/K/mol]	molar heat capacity at constant pressure, m1 = 0.00999 [J/K/mol]	molar heat capacity at constant pressure, m1 = 0.01497 [J/K/mol]	molar heat capacity at constant pressure, m1 = 0.02005 [J/K/mol]
[1], 278.15 K	1000.19 ± 0.17	1000.25 ± 0.17	1001.06 ± 0.17	1000.93 ± 0.17	1001.36 ± 0.17	–	–	–	–	–
[1], 283.15 K	999.98 ± 0.17	999.98 ± 0.17	1000.74 ± 0.17	1000.64 ± 0.17	1001.07 ± 0.17	–	–	–	–	–
[1], 288.15 K	999.38 ± 0.17	999.38 ± 0.17	1000.11 ± 0.17	1000.03 ± 0.17	1000.44 ± 0.17	–	–	–	–	–
[1], 298.15 K	997.3 ± 0.17	997.33 ± 0.17	998.03 ± 0.17	997.95 ± 0.17	998.34 ± 0.17	–	–	–	–	–
[1], 308.15 K	994.32 ± 0.18	994.31 ± 0.18	994.97 ± 0.18	994.92 ± 0.18	995.33 ± 0.18	–	–	–	–	–
[1], 318.15 K	990.49 ± 0.19	990.5 ± 0.19	991.14 ± 0.19	991.09 ± 0.19	991.48 ± 0.19	–	–	–	–	–
[1], 328.15 K	985.92 ± 0.2	985.99 ± 0.2	986.59 ± 0.2	986.57 ± 0.2	986.97 ± 0.2	–	–	–	–	–
[1], 338.15 K	980.82 ± 0.21	980.87 ± 0.21	981.45 ± 0.21	981.46 ± 0.21	981.84 ± 0.21	–	–	–	–	–
[1], 348.15 K	975.1 ± 0.22	975.18 ± 0.22	975.74 ± 0.22	975.74 ± 0.22	976.12 ± 0.22	–	–	–	–	–
[1], 358.15 K	968.87 ± 0.23	968.96 ± 0.23	969.5 ± 0.23	969.51 ± 0.23	969.88 ± 0.23	–	–	–	–	–
[1], 368.15 K	962.18 ± 0.25	962.24 ± 0.25	962.76 ± 0.25	962.76 ± 0.25	963.12 ± 0.25	–	–	–	–	–
[2], 278.15 K	–	–	–	–	–	75.67 ± 0.3	75.7 ± 0.3	75.73 ± 0.3	75.73 ± 0.3	75.74 ± 0.3
[2], 283.15 K	–	–	–	–	–	75.5 ± 0.3	75.53 ± 0.3	75.55 ± 0.3	75.56 ± 0.3	75.57 ± 0.3
[2], 288.15 K	–	–	–	–	–	75.39 ± 0.3	75.41 ± 0.3	75.44 ± 0.3	75.45 ± 0.3	75.46 ± 0.3
[2], 293.15 K	–	–	–	–	–	75.32 ± 0.3	75.34 ± 0.3	75.36 ± 0.3	75.38 ± 0.3	75.38 ± 0.3
[2], 298.15 K	–	–	–	–	–	75.27 ± 0.3	75.29 ± 0.3	75.31 ± 0.3	75.33 ± 0.3	75.33 ± 0.3
[2], 303.15 K	–	–	–	–	–	75.24 ± 0.3	75.27 ± 0.3	75.28 ± 0.3	75.3 ± 0.3	75.3 ± 0.3
[2], 308.15 K	–	–	–	–	–	75.23 ± 0.3	75.25 ± 0.3	75.27 ± 0.3	75.29 ± 0.3	75.29 ± 0.3
[2], 313.15 K	–	–	–	–	–	75.23 ± 0.3	75.25 ± 0.3	75.27 ± 0.3	75.28 ± 0.3	75.29 ± 0.3
[2], 318.15 K	–	–	–	–	–	75.24 ± 0.3	75.27 ± 0.3	75.28 ± 0.3	75.3 ± 0.3	75.31 ± 0.3
[2], 323.15 K	–	–	–	–	–	75.27 ± 0.3	75.29 ± 0.3	75.3 ± 0.3	75.32 ± 0.3	75.33 ± 0.3
[2], 328.15 K	–	–	–	–	–	75.3 ± 0.3	75.32 ± 0.3	75.34 ± 0.3	75.35 ± 0.3	75.36 ± 0.3
[2], 333.15 K	–	–	–	–	–	75.34 ± 0.3	75.36 ± 0.3	75.38 ± 0.3	75.39 ± 0.3	75.4 ± 0.3
[2], 338.15 K	–	–	–	–	–	75.39 ± 0.3	75.41 ± 0.3	75.43 ± 0.3	75.44 ± 0.3	75.45 ± 0.3
[2], 343.15 K	–	–	–	–	–	75.45 ± 0.3	75.47 ± 0.3	75.48 ± 0.3	75.5 ± 0.3	75.51 ± 0.3
[2], 348.15 K	–	–	–	–	–	75.51 ± 0.3	75.54 ± 0.3	75.55 ± 0.3	75.57 ± 0.3	75.58 ± 0.3
[2], 353.15 K	–	–	–	–	–	75.58 ± 0.3	75.61 ± 0.3	75.62 ± 0.3	75.64 ± 0.3	75.65 ± 0.3
[2], 358.15 K	–	–	–	–	–	75.66 ± 0.3	75.69 ± 0.3	75.7 ± 0.3	75.72 ± 0.3	75.73 ± 0.3
[2], 363.15 K	–	–	–	–	–	75.75 ± 0.3	75.78 ± 0.3	75.79 ± 0.3	75.81 ± 0.3	75.82 ± 0.3
[2], 368.15 K	–	–	–	–	–	75.85 ± 0.3	75.87 ± 0.3	75.88 ± 0.3	75.91 ± 0.3	75.91 ± 0.3
[2], 373.15 K	–	–	–	–	–	75.95 ± 0.3	75.98 ± 0.3	75.99 ± 0.3	76.01 ± 0.3	76.02 ± 0.3
[2], 378.15 K	–	–	–	–	–	76.06 ± 0.3	76.09 ± 0.3	76.1 ± 0.3	76.13 ± 0.3	76.13 ± 0.31
[2], 383.15 K	–	–	–	–	–	76.18 ± 0.3	76.21 ± 0.3	76.22 ± 0.3	76.25 ± 0.3	76.25 ± 0.31
[2], 388.15 K	–	–	–	–	–	76.32 ± 0.3	76.34 ± 0.3	76.35 ± 0.3	76.38 ± 0.3	76.38 ± 0.31
[2], 393.15 K	–	–	–	–	–	76.46 ± 0.31	76.48 ± 0.31	76.49 ± 0.31	76.53 ± 0.31	76.51 ± 0.31
